Patent publication EP1650209A1, “Griseusin derivatives and their use as antitumor agents” (Oncotest GmbH, priority 2004, dated 2006)
Values after ≈ are worked out from the molar mass of the structure shown.

Experiments:
Experiment in all cases: Clonogenic assay, colony formation of tumor stem cells from xenografts
Assay type in all cases: cell-based, human
PXF 1752 = conditions: Pleuramesothelio, xenograft PXF 1752, colony formation
Method: (§1) Using various human cancer xenografts in vitro, the concentrations of compound B which inhibit formation of tumor colonies of tumor stem cells by 50% (IC50) and 70% (IC70) are determined in a clonogenic assay. Specifically, each solid tumor of bladder cancer (BXF 1036 and BXF 1299), cervical cancer (CEXF 633 and CEXF 773), colic cancer (CXF 1103, CXF 158, CXF 1729, CXF 264 and CXF 280), gastric cancer (GXF 251 and GXF 97), head and neck cancer (HNXF 536), liver cancer (LIXF 575), non small cell lung cancer comprising adeno, squamous epithelium and large cell carcinoma (LXFA 1012, LXFA 289, LXFA 297, LXFA 526, LXFA 592, LXFA 629, LXFA 677, LXFE 409, LXFL 1072, LXFL 430LX and LXFL 529), small cell lung cancer (LXFS 650), mammary cancer (MAXF 1162, MAXF 1384, MAXF 401, MAXF 449, MAXF 574, MAXF 583, MAXF 713 and MAXF 857), melanoma (MEXF 1341, MEXF 462, MEXF 535 and MEXF 989), ovary cancer (OVXF 899), pancreatic cancer (PAXF 546 and PAXF 736), prostate cancer (DU-145 and PC3M), pleuramesothelioma (PXF 1752), renal cancer (RXF 1220, RXF 1393, RXF 393, RXF 631 and RXF 944LX), and sarcoma (SXF 1301 and SXF 463) engrafted on RPMI nu/nu thymus aplastic nude mice were explanted, disaggregated by mincing and enzymatic digestion for 50 minutes using 125 U/mL DNAse I, 41 U/mL collagenase IV, 100 U/ml hyaluronidase III, and 1 U/mL dispase I, and passed through sieves of 200 µm and 50 µm mesh size and washed twice with sterile PBS-buffer to remove cell aggregated from single cells. The clonogenic assay was performed in a 24 multiwell format. Each of the resulting single cell suspensions was added at a density of 2·10^4 to 6·10^4 cells per well to 0.2 ml of Iscove's Modified Dulbecco's Medium (IMDM) containing 20% fetal calf serum and 0.01% gentamicin supplemented with 0.4% (w/v) agar, and plated onto a bottom layer consisting of the same culture medium containing 0.75% (w/v) agar. After 24 hours IMDM containing 20% fetal calf serum and 0.01 % gentamicin, together with a test compound, was added there to. Then, the plate was incubated at 37°C for 10 to 20 days in a humidified atmosphere of air containing 7.5% CO2. Within this period, in vitro tumor growth led to the formation of colonies with a diameter of > 50µm. Colony counts were performed with an automatic image analysis system (OMNICON 3600). 24 hours prior to evaluation, vital colonies were stained with a vital staining dye. Therefore, 100 µl of a sterile aqueous solution of 2-(4-iodophenyl)-3-(4-nitrophenyl)-5-phenyltetrazolium chloride (1 mg/ml) were added to each well of the plate, and plates were incubated for 24 hours at 37°C in a humidified atmosphere of air containing 7.5% CO2. Inhibition of colony formation was expressed as test versus untreated control (T/C-value [%]). IC50 and IC70 values were determined by plotting compound concentration versus cell viability. Table 3: Inhibition of Colony Formation of Tumor Stem Cells by griseusin derivative B

LXFL 529 = conditions: Lung, non small cell, xenograft LXFL 529, colony formation
Method: as §1

LXFA 592 = conditions: Lung, non small cell, xenograft LXFA 592, colony formation
Method: as §1

RXF 944LX = conditions: Kidney, xenograft RXF 944LX
Method: as §1

MAXF 449 = conditions: Breast, xenograft MAXF 449, colony formation
Method: as §1

LXFA 526 = conditions: Lung, non small cell, xenograft LXFA 526, colony formation
Method: as §1

SXF 1301 = conditions: Sarcoma, xenograft SXF 1301, colony formation
Method: as §1

CXF 264 = conditions: Colon, xenograft CXF 264, colony formation
Method: as §1

MAXF 857 = conditions: Breast, xenograft MAXF 857, colony formation
Method: as §1

LXFA 297 = conditions: Lung, non small cell, xenograft LXFA 297, colony formation
Method: as §1

LXFA 629 = conditions: Lung, non small cell, xenograft LXFA 629, colony formation
Method: as §1

RXF 1393 = conditions: Kidney, xenograft RXF 1393, colony formation
Method: as §1

LXFA 289 = conditions: Lung, non small cell, xenograft LXFA 289, colony formation
Method: as §1

PAXF 546 = conditions: Pancreas, xenograft PAXF 546, colony formation
Method: as §1

LIXF 575 = conditions: Liver, xenograft LIXF 575, colony formation
Method: as §1

RXF 393 = conditions: Kidney, xenograft RXF 393, colony formation
Method: as §1

MEXF 535 = conditions: Melanoma, xenograft MEXF 535, colony formation
Method: as §1

PC3M = conditions: Prostate, xenograft PC3M
Method: as §1

IC50 (PXF 1752): 0.811 µg/mL (≈ 2.03 µM)
IC50 (LXFL 529): 0.364 µg/mL (≈ 0.909 µM)
IC50 (LXFA 592): 0.215 µg/mL (≈ 0.537 µM)
IC50 (RXF 944LX): 0.116 µg/mL (≈ 0.29 µM)
IC50 (MAXF 449): 0.400 µg/mL (≈ 0.999 µM)
IC50 (LXFA 526): 0.300 µg/mL (≈ 0.749 µM)
IC50 (SXF 1301): 0.328 µg/mL (≈ 0.819 µM)
IC50 (CXF 264): 0.103 µg/mL (≈ 0.257 µM)
IC50 (MAXF 857): 1.449 µg/mL (≈ 3.62 µM)
IC50 (LXFA 297): 1.461 µg/mL (≈ 3.65 µM)
IC50 (LXFA 629): 0.808 µg/mL (≈ 2.02 µM)
IC50 (RXF 1393): 0.592 µg/mL (≈ 1.48 µM)
IC50 (LXFA 289): 0.218 µg/mL (≈ 0.545 µM)
IC50 (PAXF 546): 0.168 µg/mL (≈ 0.42 µM)
IC50 (LIXF 575): 0.616 µg/mL (≈ 1.54 µM)
IC50 (RXF 393): 0.150 µg/mL (≈ 0.375 µM)
IC50 (MEXF 535): 0.055 µg/mL (≈ 0.137 µM)
IC50 (PC3M): 0.419 µg/mL (≈ 1.05 µM)
SMILES: C[C@@H]1CC(=O)[C@@H](O)[C@]2(O1)O[C@@H]1CC(=O)O[C@@H]1C1=C2C(=O)c2c(O)cccc2C1=O [Compound B, 4'-dehydro-deacetylgriseusin A]
IC70 (PXF 1752): 1.253 µg/mL (≈ 3.13 µM)
IC70 (LXFL 529): 0.699 µg/mL (≈ 1.75 µM)
IC70 (LXFA 592): 0.468 µg/mL (≈ 1.17 µM)
IC70 (RXF 944LX): 0.171 µg/mL (≈ 0.427 µM)
IC70 (MAXF 449): 0.648 µg/mL (≈ 1.62 µM)
IC70 (LXFA 526): 0.512 µg/mL (≈ 1.28 µM)
IC70 (SXF 1301): 0.517 µg/mL (≈ 1.29 µM)
IC70 (CXF 264): 0.215 µg/mL (≈ 0.537 µM)
IC70 (MAXF 857): 1.975 µg/mL (≈ 4.93 µM)
IC70 (LXFA 297): 2.179 µg/mL (≈ 5.44 µM)
IC70 (LXFA 629): 1.276 µg/mL (≈ 3.19 µM)
IC70 (RXF 1393): 0.769 µg/mL (≈ 1.92 µM)
IC70 (LXFA 289): 0.425 µg/mL (≈ 1.06 µM)
IC70 (PAXF 546): 0.420 µg/mL (≈ 1.05 µM)
IC70 (LIXF 575): 0.764 µg/mL (≈ 1.91 µM)
IC70 (RXF 393): 0.212 µg/mL (≈ 0.53 µM)
IC70 (MEXF 535): 0.094 µg/mL (≈ 0.235 µM)
IC70 (PC3M): 0.818 µg/mL (≈ 2.04 µM)
